In patent US10322112B2, “Compound combinations for attenuation of bacterial virulence” (priority 2016, dated 2019):

Tests used:
[1] = system: P. aeruginosa (PAO1); experiment: Rhamnolipid assay; type: cell-based, Pseudomonas aeruginosa; conditions: MOPS Glutamate and Glucose media, complete or iron/phosphate depleted, 17 h, 100 μM (compounds 1, 2, 3), 25 μM (compound 4), relative to DMSO
Protocol: A. Pyocyanin Assay Protocol. The amount of pyocyanin in P. aeruginosa culture supernatants was measured following a reported protocol (O'Loughlin et al., 2013) with modifications. A 10 mL overnight culture of P. aeruginosa PAO1 was grown for 16 h. DMSO stock solutions of test compounds (20 mM) were prepared, and 10 μL or 5 μL aliquots were added to sterile 15 mL borosilicate glass test tubes. An inoculating culture was prepared by diluting the overnight culture 1:100 into freshly prepared assay medium (see above), and 2 mL aliquots of this subculture were added to each test tube (0.5% DMSO, final). The cultures were grown for 17 h, and the final cell density measured by reading OD600. Relative pyocyanin levels were measured by first pelleting 1.5 mL of well-mixed culture at 4,000 g for 10 min, transferring 200 μL of the resulting supernatant to a clear, plastic 96-well microtiter plate, and reading absorbance at 695 nm. Media background absorbance (measured from a “no bacteria” control) was subtracted, the resulting values growth normalized by dividing by the final OD600378, and the data plotted relative to a DMSO-treated positive control. B. Rhamnolipid Assay Protocol. Rhamnolipid was quantified following a reported protocol (Koch et al., 1991) with modifications. Assay cultures were prepared and grown in an identical manner to the pyocyanin assay above. Aliquots of the final culture supernatant (1 mL) were transferred to 1 dram glass vials and extracted twice with 1 mL diethyl ether. The pooled organic fractions were evaporated to dryness, and the resulting residue reconstituted in 200 μL de-ionized water. […] After briefly cooling to room temperature, 200 μL of the resulting yellow to yellow-orange solution was transferred to a clear 96-well microtiter plate, and the absorbance at 421 nm measured. Media background absorbance (measured from a “no bacteria” control) was subtracted, the resulting values growth normalized by dividing by the final OD600, and the data plotted relative to a DMSO-treated positive control. […] The amount of elastase B in P. aeruginosa culture supernatants was measured following a reported protocol (Geske et al., 2007) with modifications. […] To quantify elastase B activity, the undigested elastin was pelleted by centrifugation of the assay plate at 1,500 g for 10 min, after which 100 μL of the supernatant was transferred to a new, clear 96-well plate, and the absorbance at 490 nm measured. Media background absorbance (measured from a “no bacteria” control) was subtracted, the resulting values growth normalized by dividing by the final OD600, and the data plotted relative to a DMSO-treated positive control.

[2] = target: T1, LasR (Pseudomonas aeruginosa, UniProt P25084); experiment: E. coli reporter gene primary agonism assay, LasR; type: cell-based; conditions: compounds at 100 mm; E. coli reporter strain JLD271/pJN105L/pSC11; 100 mm OdDHL = 100%; error ±10%
T1 construct: expressed in transfected cells; host or cells: E. coli JLD271
Protocol: (§1) Percent agonism of a given non-native inducer in a given bacterium and QS system receptor is measured with resepct to the maximum level of agonism (activation) by the native ligand of that receptor in the given bacterium. Percent antagonism is measured in competitive assays. The QS system of interest is activated to 100% with added or endogenous native ligand and the % antagonism of the non-native inducer is assessed with respect to 100% activation by the native inducer. The native ligand which induces LasR is OdDHL, which induces RhlR is BHL and which induces PqsR is PQS. As described herein and in cited references, assays for assessment of % agonism or % atangonism may be performed in E. coli systems (heterologous) or in the bacterium of interest, e.g., Pseudomonas. Dependent upon the assay system employed native ligand may be endogenously present or it may be exogenously supplied to the assay system. […] In antagonism assays using the native strains with functional QS systems, e.g., those of P. aeruginosa, endogenous native ligand is made in the system, so no native ligand is added. In native strains having one or more non-functional QS systems (mutant strains), e.g., P. aeruginosa mutants with non-functional QS systems, native ligand is added at about 10-100× the EC50 of the native ligand. In the agonism assay, native ligand is added as a control. Details of the assays are provided herein in Example 9 and in references cited in Example 9.

[3] = target: T2, RhlR (Pseudomonas aeruginosa, UniProt P54292); experiment: E. coli reporter gene primary agonism assay, RhlR; type: cell-based; conditions: compounds at 100 mm; 900 mm BHL = 100%; error ±10%; selected data reproduced from Welsh et al., 2015
T2 construct: expressed in transfected cells; host or cells: E. coli JLD271
Protocol: as §1

T2 sequence (P54292 whole entry): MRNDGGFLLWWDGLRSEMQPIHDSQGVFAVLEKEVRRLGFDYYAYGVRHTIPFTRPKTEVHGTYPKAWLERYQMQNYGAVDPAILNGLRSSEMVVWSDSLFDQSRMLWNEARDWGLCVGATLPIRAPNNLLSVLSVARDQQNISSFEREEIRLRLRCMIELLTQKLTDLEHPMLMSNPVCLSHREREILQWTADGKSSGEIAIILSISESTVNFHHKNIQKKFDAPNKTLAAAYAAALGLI
T1 sequence (P25084 whole entry): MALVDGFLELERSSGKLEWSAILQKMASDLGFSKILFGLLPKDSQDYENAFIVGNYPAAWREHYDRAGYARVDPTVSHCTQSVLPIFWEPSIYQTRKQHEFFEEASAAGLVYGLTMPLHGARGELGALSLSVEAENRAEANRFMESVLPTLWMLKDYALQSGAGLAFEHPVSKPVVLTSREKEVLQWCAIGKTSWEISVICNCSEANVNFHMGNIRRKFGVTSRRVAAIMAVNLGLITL

SMILES: O=C(N[C@H]1CCOC1=O)C1CCCC1 [compound 3]
- rhamnolipid production, single compound screens [1]: induced additional rhamnolipid and elastase B production
- Activation [%] LasR [2]: −4%
- Activation [%] RhlR [3]: 91%
